Columns and labels:
Type in all cases: in vivo
[1] = test system: Sinapis arvensis; assay: Test Example 2: spray on plants from above ten days after sowing, herbicidal activity; details: sprayed on plants ten days after sowing, 21 days after treatment, scale 0-10
Method: (§1) The phytotoxicity to a crop is evaluated by indicating “harmless” in case that no or little phytotoxicity is recognized, “light” in case that light phytotoxicity is recognized, “medium” in case that medium phytotoxicity is recognized, or “severe” in case that severe phytotoxicity is recognized.
(§2) Field soil was filled in a plastic pot of 32 cm wide, 22 cm long and 8 cm high, and seeds of wheat (species: Norin No. 61), Sinapis arvensis, and Stellaria media were sowed thereon.
(§3) The plants were raised in a greenhouse and herbicidal activity and phytotoxicity were determined 21 days after the chemical treatment.

[2] = test system: Stellaria media; assay: as above; details: sprayed on plants ten days after sowing, 21 days after treatment, scale 0-10
[3] = test system: Chenopodim album; assay: as above; details: sprayed on plants ten days after sowing, 21 days after treatment, scale 0-10
[4] = test system: Cyperus esculentus; assay: Test Example 4: soil spray on day of planting tubers, herbicidal activity; details: 14 days after treatment, scale 0-10
From the text: Field soil was filled in a plastic pot of 32 cm wide, 22 cm long and 8 cm high, and tubers of Cyperus esculentus were planted.
On the day of planting, each of an imazosulfuron suspension formulation (a 40% imazosulfuron-containing suspension formulation, trade name: Sibatite 40 manufactured by Sumitomo Chemical Co., Ltd.), a pendimethalin emulsifiable concentrate (a 30% pendimethalin-containing emulsifiable concentrate, trade name: Go-go-san 30 manufactured by BASF) and a mixed formulation prepared by mixing the imazosulfuron suspension formulation and the pendimethalin emulsifiable concentrate was diluted with water and uniformly sprayed on the soil with a small sprayer so that their amounts became those as shown in Table 4.
The plants were raised in a greenhouse and herbicidal activity was determined 14 days after the chemical treatment.

[5] = test system: wheat (species: Norin No. 61); assay: Test Example 2: spray on plants from above ten days after sowing, phytotoxicity to crop; details: 800 g/ha, sprayed on plants ten days after sowing, 21 days after treatment
Method: as §1, §2, §3

Row | SMILES | Herbicidal activity Sa ([1]; 100 g/ha) | Herbicidal activity Sm ([2]; 100 g/ha) | Herbicidal activity Ca ([3]; 100 g/ha) | Herbicidal activity ([4]; 25 g/ha) | Herbicidal activity Sa ([1]; 800 g/ha) | Herbicidal activity Sm ([2]; 800 g/ha) | Herbicidal activity Ca ([3]; 800 g/ha) | Phytotoxicity Wheat [5] | Herbicidal activity ([4]; 50 g/ha) | Herbicidal activity ([4]; 200 g/ha)
1 | COc1cc(OC)nc(NC(=O)NS(=O)(=O)c2c(Cl)nc3ccccn23)n1 [Imazosulfuron, 1-(2-chloroimidazo[1,2-a]pyridin-3-ylsulfonyl)-3-(4,6-dimethoxypyrimidin-2-yl)urea] | 10 | 10 | 3 | 4 | – | – | – | – | – | –
2 | CCC(CC)Nc1c([N+](=O)[O-])cc(C)c(C)c1[N+](=O)[O-] [Pendimethalin, N-(1-ethylpropyl)-3,4-dimethyl-2,6-dinitrobenzenamine] | – | – | – | – | 2 | 9 | 5 | harmless | 0 | 0

Reference: patent US20100304972A1, “HERBICIDE COMPOSITION” (priority 2007, published 2010)
